Biological target: α4β7 integrin (Homo sapiens (Human), UniProt P13612+P26010)
Assay: α4β7 Integrin Cell Capture Assay
Assay type: cell-based
Conditions: Table 1; capture of α4β7 expressing RPM18866 cells on MadCAM-1 extracellular domain-coated plate

α4β7 integrin, sequence (P13612 34-1032): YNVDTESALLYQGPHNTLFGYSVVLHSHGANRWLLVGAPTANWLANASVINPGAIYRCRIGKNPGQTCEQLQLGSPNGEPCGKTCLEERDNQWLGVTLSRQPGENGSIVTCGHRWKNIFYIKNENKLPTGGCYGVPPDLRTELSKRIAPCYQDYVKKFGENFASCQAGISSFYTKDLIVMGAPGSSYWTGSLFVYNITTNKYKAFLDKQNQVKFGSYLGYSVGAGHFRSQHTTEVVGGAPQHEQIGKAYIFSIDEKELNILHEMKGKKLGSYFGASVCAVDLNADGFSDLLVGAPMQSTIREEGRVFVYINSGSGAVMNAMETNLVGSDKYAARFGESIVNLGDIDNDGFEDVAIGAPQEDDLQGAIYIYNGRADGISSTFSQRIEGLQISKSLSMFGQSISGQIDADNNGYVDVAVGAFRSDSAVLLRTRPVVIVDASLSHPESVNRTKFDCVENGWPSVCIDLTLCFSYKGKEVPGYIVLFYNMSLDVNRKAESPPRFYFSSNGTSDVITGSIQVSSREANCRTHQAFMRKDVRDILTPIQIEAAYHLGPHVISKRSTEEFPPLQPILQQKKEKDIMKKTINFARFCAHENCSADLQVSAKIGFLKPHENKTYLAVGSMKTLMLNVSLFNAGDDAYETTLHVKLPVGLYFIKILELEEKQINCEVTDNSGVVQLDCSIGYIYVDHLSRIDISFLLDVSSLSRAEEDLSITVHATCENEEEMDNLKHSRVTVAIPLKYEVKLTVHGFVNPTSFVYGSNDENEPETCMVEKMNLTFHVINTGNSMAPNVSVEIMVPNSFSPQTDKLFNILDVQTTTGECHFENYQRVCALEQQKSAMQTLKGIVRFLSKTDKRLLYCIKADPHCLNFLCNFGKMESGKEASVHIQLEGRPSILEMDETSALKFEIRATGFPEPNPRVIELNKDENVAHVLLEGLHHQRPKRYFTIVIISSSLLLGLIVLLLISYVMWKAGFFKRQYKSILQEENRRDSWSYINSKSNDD
α4β7 integrin, sequence (P26010 20-798): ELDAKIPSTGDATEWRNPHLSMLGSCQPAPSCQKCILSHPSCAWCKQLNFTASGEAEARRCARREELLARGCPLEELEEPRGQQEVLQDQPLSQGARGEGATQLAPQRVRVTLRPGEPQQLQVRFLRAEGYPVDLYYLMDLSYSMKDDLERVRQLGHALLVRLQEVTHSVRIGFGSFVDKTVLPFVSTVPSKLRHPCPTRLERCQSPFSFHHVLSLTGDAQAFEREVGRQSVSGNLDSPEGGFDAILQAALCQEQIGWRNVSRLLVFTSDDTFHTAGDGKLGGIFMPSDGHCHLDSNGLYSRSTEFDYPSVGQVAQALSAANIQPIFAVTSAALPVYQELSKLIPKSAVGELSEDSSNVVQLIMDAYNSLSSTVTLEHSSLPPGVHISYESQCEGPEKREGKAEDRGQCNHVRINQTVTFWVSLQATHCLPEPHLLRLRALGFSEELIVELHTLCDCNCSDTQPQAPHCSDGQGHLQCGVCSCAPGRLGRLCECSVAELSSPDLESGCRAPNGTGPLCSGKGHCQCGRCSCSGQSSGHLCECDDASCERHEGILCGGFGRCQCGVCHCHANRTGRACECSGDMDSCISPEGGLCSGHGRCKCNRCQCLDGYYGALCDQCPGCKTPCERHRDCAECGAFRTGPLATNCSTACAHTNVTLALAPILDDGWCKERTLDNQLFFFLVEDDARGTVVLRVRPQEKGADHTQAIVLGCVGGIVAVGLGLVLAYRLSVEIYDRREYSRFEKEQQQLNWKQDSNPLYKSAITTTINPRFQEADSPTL

SMILES	EC50 [nM]
CC[C@@H](Nc1cc(F)c(C(=O)N[C@@H](Cc2ccc(-c3nccc(OC)c3C(F)(F)F)c3ncccc23)C(=O)O)c(F)c1)C(F)(F)F [Example 92, (S)-2-(2,6-difluoro-4-(((R)-1,1,1-trifluorobutan-2-yl)amino)benzamido)-3-(8-(4-methoxy-3-(trifluoromethyl)pyridin-2-yl)quinolin-5-yl)propanoic acid]	2
Cc1cc(C(F)(F)F)c(-c2ccc(C[C@H](NC(=O)c3c(F)cc(N4CCOC[C@@H]4C(F)(F)F)cc3F)C(=O)O)c3cccnc23)nc1C [Example 94, (S)-2-(2,6-difluoro-4-((R)-3-(trifluoromethyl)morpholino)benzamido)-3-(8-(5,6-dimethyl-3-(trifluoromethyl)pyridin-2-yl)quinolin-5-yl)propanoic acid]	0.5
Cc1cc(C)n(C)c(=O)c1-c1ccc(C[C@H](NC(=O)c2c(F)cc(N3CCOC[C@@H]3C(F)(F)F)cc2F)C(=O)O)c2cccnc12 [Example 95, (S)-2-(2,6-difluoro-4-((R)-3-(trifluoromethyl)morpholino)benzamido)-3-(8-(1,4,6-trimethyl-2-oxo-1,2-dihydropyridin-3-yl)quinolin-5-yl)propanoic acid]	0.3
Cc1cc(C(F)(F)F)c(-c2ccc(C[C@H](NC(=O)c3c(F)cc(N4CCOC[C@@H]4C(F)(F)F)cc3F)C(=O)O)c3cccnc23)c(=O)n1C [Example 96, (S)-2-(2,6-difluoro-4-((R)-3-(trifluoromethyl)morpholino)benzamido)-3-(8-(1,6-dimethyl-2-oxo-4-(trifluoromethyl)-1,2-dihydropyridin-3-yl)quinolin-5-yl)propanoic acid]	0.2
Cn1cc(C(F)(F)F)cc(-c2ccc(C[C@H](NC(=O)c3c(F)cc(N4CCOC[C@@H]4C(F)(F)F)cc3F)C(=O)O)c3cccnc23)c1=O [Example 98, (S)-2-(2,6-difluoro-4-((R)-3-(trifluoromethyl)morpholino)benzamido)-3-(8-(1-methyl-2-oxo-5-(trifluoromethyl)-1,2-dihydropyridin-3-yl)quinolin-5-yl)propanoic acid]	1.4
COc1cc(C)nc(-c2ccc(C[C@H](NC(=O)c3c(F)cc(N4CCOC[C@@H]4C(F)(F)F)cc3F)C(=O)O)c3cccnc23)n1 [Example 99, (S)-2-(2,6-difluoro-4-((R)-3-(trifluoromethyl)morpholino)benzamido)-3-(8-(4-methoxy-6-methylpyrimidin-2-yl)quinolin-5-yl)propanoic acid]	11.2
Cc1cc(Cl)c(-c2ccc(C[C@H](NC(=O)c3c(F)cc(N4CCOC[C@@H]4C(F)(F)F)cc3F)C(=O)O)c3cccnc23)c(=O)n1C [Example 100, (S)-3-(8-(4-chloro-1,6-dimethyl-2-oxo-1,2-dihydropyridin-3-yl)quinolin-5-yl)-2-(2,6-difluoro-4-((R)-3-(trifluoromethyl)morpholino)benzamido)propanoic acid]	0.7
CN(C)c1cccnc1-c1ccc(C[C@H](NC(=O)c2c(F)cc(N3CCOC[C@@H]3C(F)(F)F)cc2F)C(=O)O)c2cccnc12 [Example 101, (S)-2-(2,6-difluoro-4-((R)-3-(trifluoromethyl)morpholino)benzamido)-3-(8-(3-(dimethylamino)pyridin-2-yl)quinolin-5-yl)propanoic acid]	4.1
COc1cc(C)n(C)c(=O)c1-c1ccc(C[C@H](NC(=O)c2c(F)cc(N3CCOC[C@@H]3C(F)(F)F)cc2F)C(=O)O)c2cccnc12 [Example 102, (S)-2-(2,6-difluoro-4-((R)-3-(trifluoromethyl)morpholino)benzamido)-3-(8-(4-methoxy-1,6-dimethyl-2-oxo-1,2-dihydropyridin-3-yl)quinolin-5-yl)propanoic acid]	0.3
Cc1cc(N2CCC2)c(-c2ccc(C[C@H](NC(=O)c3c(F)cc(N4CCOC[C@@H]4C(F)(F)F)cc3F)C(=O)O)c3cccnc23)c(=O)n1C [Example 103, (S)-3-(8-(4-(azetidin-1-yl)-1,6-dimethyl-2-oxo-1,2-dihydropyridin-3-yl)quinolin-5-yl)-2-(2,6-difluoro-4-((R)-3-(trifluoromethyl)morpholino)benzamido)propanoic acid]	0.7
Cn1c(=O)c(-c2ccc(C[C@H](NC(=O)c3c(F)cc(N4CCOC[C@@H]4C(F)(F)F)cc3F)C(=O)O)c3cccnc23)cc2ccccc21 [Example 104, (S)-2-(2,6-difluoro-4-((R)-3-(trifluoromethyl)morpholino)benzamido)-3-(1-methyl-2-oxo-1,2-dihydro-[3,8′-biquinolin]-5′-yl)propanoic acid]	0.5
CN(C)c1ccnc(-c2ccc(C[C@H](NC(=O)c3c(F)cc(N4CCOC[C@@H]4C(F)(F)F)cc3F)C(=O)O)c3cccnc23)c1C(F)(F)F [Example 105, (S)-2-(2,6-difluoro-4-((R)-3-(trifluoromethyl)morpholino)benzamido)-3-(8-(4-(dimethylamino)-3-(trifluoromethyl)pyridin-2-yl)quinolin-5-yl)propanoic acid]	4.1
Cc1c(C(F)(F)F)cn(C)c(=O)c1-c1ccc(C[C@H](NC(=O)c2c(F)cc(N3CCOC[C@@H]3C(F)(F)F)cc2F)C(=O)O)c2cccnc12 [Example 106, (S)-2-(2,6-difluoro-4-((R)-3-(trifluoromethyl)morpholino)benzamido)-3-(8-(1,4-dimethyl-2-oxo-5-(trifluoromethyl)-1,2-dihydropyridin-3-yl)quinolin-5-yl)propanoic acid]	0.3
CC[C@@H](Nc1cc(F)c(C(=O)N[C@@H](Cc2ccc(-n3c(=O)c4cc(N(C)C)ccc4n(C)c3=O)c3ncccc23)C(=O)O)c(F)c1)C(F)(F)F [Example 108, (S)-2-(2,6-difluoro-4-(((R)-1,1,1-trifluorobutan-2-yl)amino)benzamido)-3-(8-(6-(dimethylamino)-1-methyl-2,4-dioxo-1,4-dihydroquinazolin-3(2H)-yl)quinolin-5-yl)propanoic acid]	1
CC[C@@H](Nc1cc(F)c(C(=O)N[C@@H](Cc2ccc(-c3cc4ccncc4n(C)c3=O)c3ncccc23)C(=O)O)c(F)c1)C(F)(F)F [Example 110, (S)-2-(2,6-difluoro-4-(((R)-1,1,1-trifluorobutan-2-yl)amino)benzamido)-3-(8-(1-methyl-2-oxo-1,2-dihydro-1,7-naphthyridin-3-yl)quinolin-5-yl)propanoic acid]	0.3
CC[C@@H](Nc1cc(F)c(C(=O)N[C@@H](Cc2ccc(-c3c(C(F)(F)F)c4ccncc4n(C)c3=O)c3ncccc23)C(=O)O)c(F)c1)C(F)(F)F [Example 111, (S)-2-(2,6-difluoro-4-(((R)-1,1,1-trifluorobutan-2-yl)amino)benzamido)-3-(8-(1-methyl-2-oxo-4-(trifluoromethyl)-1,2-dihydro-1,7-naphthyridin-3-yl)quinolin-5-yl)propanoic acid]	0.1
CC[C@@H](Nc1cc(F)c(C(=O)N[C@@H](Cc2ccc(-c3c(C)n(C)c(=O)n(C)c3=O)c3ncccc23)C(=O)O)c(F)c1)C(F)(F)F [Example 114, (S)-2-(2,6-difluoro-4-(((R)-1,1,1-trifluorobutan-2-yl)amino)benzamido)-3-(8-(1,3,6-trimethyl-2,4-dioxo-1,2,3,4-tetrahydropyrimidin-5-yl)quinolin-5-yl)propanoic acid]	0.6
CC[C@@H](Nc1cc(F)c(C(=O)N[C@@H](Cc2ccc(-c3c(C)c(C)c(C)n(C)c3=O)c3ncccc23)C(=O)O)c(F)c1)C(F)(F)F [Example 115, (S)-2-(2,6-difluoro-4-(((R)-1,1,1-trifluorobutan-2-yl)amino)benzamido)-3-(8-(1,4,5,6-tetramethyl-2-oxo-1,2-dihydropyridin-3-yl)quinolin-5-yl)propanoic acid]	0.6
CC[C@@H](Nc1cc(F)c(C(=O)N[C@@H](Cc2ccc(-c3cc(Cl)c(C)n(C)c3=O)c3ncccc23)C(=O)O)c(F)c1)C(F)(F)F [Example 116, (S)-3-(8-(5-chloro-1,6-dimethyl-2-oxo-1,2-dihydropyridin-3-yl)quinolin-5-yl)-2-(2,6-difluoro-4-(((R)-1,1,1-trifluorobutan-2-yl)amino)benzamido)propanoic acid]	1.2
CC[C@@H](Nc1cc(F)c(C(=O)N[C@@H](Cc2ccc(-c3nc(C)c(C)n(C)c3=O)c3ncccc23)C(=O)O)c(F)c1)C(F)(F)F [Example 117, (S)-2-(2,6-difluoro-4-(((R)-1,1,1-trifluorobutan-2-yl)amino)benzamido)-3-(8-(4,5,6-trimethyl-3-oxo-3,4-dihydropyrazin-2-yl)quinolin-5-yl)propanoic acid]	0.7
CC[C@@H](Nc1cc(F)c(C(=O)N[C@@H](Cc2ccc(-c3cnc(C)n(C)c3=O)c3ncccc23)C(=O)O)c(F)c1)C(F)(F)F [Example 118, (S)-2-(2,6-difluoro-4-(((R)-1,1,1-trifluorobutan-2-yl)amino)benzamido)-3-(8-(1,2-dimethyl-6-oxo-1,6-dihydropyrimidin-5-yl)quinolin-5-yl)propanoic acid]	1.5
CC[C@@H](Nc1cc(F)c(C(=O)N[C@@H](Cc2ccc(-c3nn(C)c(=O)cc3C)c3ncccc23)C(=O)O)c(F)c1)C(F)(F)F [Example 119, (S)-2-(2,6-difluoro-4-(((R)-1,1,1-trifluorobutan-2-yl)amino)benzamido)-3-(8-(1,4-dimethyl-6-oxo-1,6-dihydropyridazin-3-yl)quinolin-5-yl)propanoic acid]	20.5
CC[C@@H](Nc1cc(F)c(C(=O)N[C@@H](Cc2ccc(-c3nc(C)ccc3OC)c3ncccc23)C(=O)O)c(F)c1)C(F)(F)F [Example 120, (S)-2-(2,6-difluoro-4-(((R)-1,1,1-trifluorobutan-2-yl)amino)benzamido)-3-(8-(3-methoxy-6-methylpyridin-2-yl)quinolin-5-yl)propanoic acid]	1.3
CC[C@@H](Nc1cc(F)c(C(=O)N[C@@H](Cc2ccc(-c3c(OC)cc(CN4CCOCC4)cc3OC)c3ncccc23)C(=O)O)c(F)c1)C(F)(F)F [Example 121, (S)-2-(2,6-difluoro-4-(((R)-1,1,1-trifluorobutan-2-yl)amino)benzamido)-3-(8-(2,6-dimethoxy-4-(morpholinomethyl)phenyl)quinolin-5-yl)propanoic acid]	1.7

Source: patent US11116760B2 (Gilead Sciences, Inc., priority 2018, dated 2021)
